Earlier results, collected in patent US9682924B2, “Crystalline form of VSN16” (CANBEX THERAPEUTICS LIMITED, priority 2013, dated 2017).
Values belong to the compound of their own block, whether it stands above or below them.

Legend:
CB1 receptors = target: T1, CB1 receptors (Rattus norvegicus, UniProt P20272); conditions: rat cerebellum
T1 construct: from tissue; host or cells: rat cerebellum

spasticity in CREAE mice = conditions: without producing significant adverse CNS effects
mesenteric arteries = conditions: for antagonism of VSN16 vasorelaxation: antagonist against VSN16-induced vasorelaxation, rimonabant and AM 251 at high concentrations

T1 sequence (P20272 whole entry): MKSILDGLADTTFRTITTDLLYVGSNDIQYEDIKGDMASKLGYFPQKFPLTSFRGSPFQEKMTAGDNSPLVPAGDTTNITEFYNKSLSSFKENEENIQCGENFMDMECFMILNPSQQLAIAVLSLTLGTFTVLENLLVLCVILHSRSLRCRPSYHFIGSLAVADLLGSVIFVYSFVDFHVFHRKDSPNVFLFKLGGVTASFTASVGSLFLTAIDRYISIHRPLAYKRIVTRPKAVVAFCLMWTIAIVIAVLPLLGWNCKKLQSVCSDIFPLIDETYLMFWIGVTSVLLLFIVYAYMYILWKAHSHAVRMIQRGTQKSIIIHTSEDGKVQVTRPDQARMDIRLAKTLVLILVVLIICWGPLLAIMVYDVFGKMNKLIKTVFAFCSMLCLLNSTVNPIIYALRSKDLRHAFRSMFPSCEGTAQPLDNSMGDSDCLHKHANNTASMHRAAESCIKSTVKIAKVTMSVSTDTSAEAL

effect on [3H]CP55,940 binding to CB1 receptors (CB1 receptors): does not affect
Compound: CC(CO)NC(=O)c1cccc(/C=C\CCCC(=O)N(C)C)c1 (centres unmarked) [VSN16]
blood pressure (conscious rats): transiently increases blood pressure
mesenteric vascular conductance (conscious rats): longer-lasting increase in mesenteric vascular conductance
effect on spasticity (spasticity in CREAE mice): marked effect on spasticity
relaxation of mesenteric arteries (mesenteric arteries; endothelium-dependent): relaxes mesenteric arteries in an endothelium-dependent manner

Compound: Cc1c(C(=O)NN2CCCCC2)nn(-c2ccc(Cl)cc2Cl)c1-c1ccc(I)cc1 [AM 251]
antagonism of VSN16 vasorelaxation (mesenteric arteries): antagonized

Compound: C=C(C)[C@@H]1CCC(C)=C[C@H]1c1c(OC)cc(C)cc1OC [O-1918]
antagonism of VSN16 vasorelaxation (mesenteric arteries): antagonized

Compound: Cc1c(C(=O)NN2CCCCC2)nn(-c2ccc(Cl)cc2Cl)c1-c1ccc(Cl)cc1 [rimonabant]
antagonism of VSN16 vasorelaxation (mesenteric arteries): antagonized
